The NIST ThermoML archive (doi:10.1016/j.tca.2015.03.026)
Where “and” joins values, the source holds several entries; their conditions need not be identical. Equal values may be shown once.

Tests used:
[1] = for Normal melting temperature: DTA
[2] = Molar enthalpy of transition or fusion; settings: Crystal; DSC

Cc1ccccc1C(=O)O [2-methylbenzoic acid]
[1], Crystal, Transpiration method
Settings | vapor or sublimation pressure [kPa]
331.2 K | 0.0028
335.2 K | 0.00421
341.2 K | 0.00767
345.2 K | 0.0112
348.2 K | 0.01564
351.2 K | 0.01962
355.4 K | 0.02895
358.6 K | 0.0389
358.7 K | 0.03932
361.2 K | 0.05138
364.2 K | 0.06664
367.4 K | 0.08391
373 K | 0.1339

O=C(O)c1ccccc1 [benzoic acid]
[1], Crystal
Settings | vapor or sublimation pressure [kPa]
297.67 K, Closed cell (Static) method | 0.000108
299.96 K, Closed cell (Static) method | 0.000142
300.03 K, Closed cell (Static) method | 0.000143
302.51 K, Closed cell (Static) method | 0.000193
304.75 K, Closed cell (Static) method | 0.00025
307.27 K, Closed cell (Static) method | 0.000335
309.63 K, Closed cell (Static) method | 0.000436
312.08 K, Closed cell (Static) method | 0.000573
314.4 K, Closed cell (Static) method | 0.000738
314.59 K, Closed cell (Static) method | 0.000754
316.3 K, Transpiration method | 0.00095
316.91 K, Closed cell (Static) method | 0.000969
319.48 K, Closed cell (Static) method | 0.00127
320.4 K, Transpiration method | 0.00147
321.91 K, Closed cell (Static) method | 0.00164
324 K, Transpiration method | 0.00214
324.39 K, Closed cell (Static) method | 0.00212
326.76 K, Closed cell (Static) method | 0.00268
327.4 K, Transpiration method | 0.00302
329.2 K, Closed cell (Static) method | 0.00343
331.62 K, Closed cell (Static) method | 0.00436
332.4 K, Transpiration method | 0.00495
334.07 K, Closed cell (Static) method | 0.00554
336.46 K, Closed cell (Static) method | 0.00693
337.4 K, Transpiration method | 0.00809
338.98 K, Closed cell (Static) method | 0.00873
342.3 K, Transpiration method | 0.01272
347.3 K, Transpiration method | 0.01965
352.4 K, Transpiration method | 0.03114
357.4 K, Transpiration method | 0.04619
362.5 K, Transpiration method | 0.06987
367.5 K, Transpiration method | 0.1076

Cc1ccc(C(=O)O)cc1 [4-methylbenzoic acid]
Settings | Molar enthalpy of transition or fusion [kJ/mol]
[2] | 22.3

[1], Crystal, Transpiration method
Settings | vapor or sublimation pressure [kPa]
340.4 K | 0.00123
343.3 K | 0.00162
348.5 K | 0.00271
356.7 K | 0.00558
359.3 K | 0.00715
363.9 K | 0.01097
368.5 K | 0.01623
373.7 K | 0.02473
374.4 K | 0.02687
378.8 K | 0.03813
380.1 K | 0.04273
384.4 K | 0.05807
389.2 K | 0.08453
394 K | 0.1213
398.8 K | 0.1748

Settings | Normal melting temperature [°C]
[1], Crystal | 180.2

COc1ccc(C(=O)O)cc1 [4-methoxybenzoic acid]
[1], Crystal, Transpiration method
Settings | vapor or sublimation pressure [kPa]
363.3 K | 0.00117
368.2 K | 0.0019
374.9 K | 0.00353
383.2 K | 0.00753
384.5 K | 0.0085
388.3 K | 0.01217
391.1 K | 0.01556
394.2 K | 0.01971
397.2 K | 0.0267
400.3 K | 0.03247
403.4 K | 0.04422
406.2 K | 0.05311

COc1ccccc1C(=O)O [2-methoxybenzoic acid]
Settings | Molar enthalpy of transition or fusion [kJ/mol]
[2] | 23.9

[1]
Settings | vapor or sublimation pressure
318.25 K, Crystal, Closed cell (Static) method | 6.16e-05 kPa
320.73 K, Crystal, Closed cell (Static) method | 8.28e-05 kPa
323.21 K, Crystal, Closed cell (Static) method | 0.0001133 kPa
325.68 K, Crystal, Closed cell (Static) method | 0.0001504 kPa
328.17 K, Crystal, Closed cell (Static) method | 0.0002043 kPa
330.65 K, Crystal, Closed cell (Static) method | 0.0002676 kPa
333.12 K, Crystal, Closed cell (Static) method | 0.0003567 kPa
335.61 K, Crystal, Closed cell (Static) method | 0.0004802 kPa
335.62 K, Crystal, Closed cell (Static) method | 0.0004752 kPa
338.08 K, Crystal, Closed cell (Static) method | 0.0006182 kPa
340.58 K, Crystal, Closed cell (Static) method | 0.000822 kPa and 0.0008262 kPa
343.05 K, Crystal, Closed cell (Static) method | 0.001076 kPa
344.3 K, Crystal, Transpiration method | 0.00121 kPa
345.3 K, Crystal, Transpiration method | 0.00133 kPa
345.4 K, Crystal, Transpiration method | 0.00133 kPa
345.54 K, Crystal, Closed cell (Static) method | 0.001402 kPa
346.4 K, Crystal, Transpiration method | 0.0015 kPa
347.2 K, Crystal, Transpiration method | 0.00163 kPa
347.4 K, Crystal, Transpiration method | 0.00164 kPa
348.02 K, Crystal, Closed cell (Static) method | 0.001813 kPa
348.34 K, Crystal, Closed cell (Static) method | 0.001883 kPa
348.4 K, Crystal, Transpiration method | 0.00179 kPa
349.2 K, Crystal, Transpiration method | 0.00196 kPa
350.4 K, Crystal, Transpiration method | 0.0023 kPa
350.5 K, Crystal, Closed cell (Static) method | 0.002351 kPa
350.82 K, Crystal, Closed cell (Static) method | 0.002438 kPa
352.4 K, Crystal, Transpiration method | 0.00275 kPa
353.3 K, Crystal, Closed cell (Static) method | 0.003074 kPa
353.5 K, Crystal, Transpiration method | 0.00317 kPa
354.5 K, Crystal, Transpiration method | 0.00349 kPa
355.5 K, Crystal, Transpiration method | 0.00377 kPa
355.78 K, Crystal, Closed cell (Static) method | 0.003984 kPa
356.5 K, Crystal, Transpiration method | 0.00408 kPa
357.6 K, Crystal, Transpiration method | 0.00472 kPa
358.26 K, Crystal, Closed cell (Static) method | 0.005029 kPa
358.4 K, Crystal, Transpiration method | 0.00508 kPa
359.5 K, Crystal, Transpiration method | 0.00566 kPa
360.5 K, Crystal, Transpiration method | 0.00637 kPa
360.75 K, Crystal, Closed cell (Static) method | 0.006481 kPa
361.6 K, Crystal, Transpiration method | 0.00677 kPa
362.5 K, Crystal, Transpiration method | 0.00755 kPa
363.23 K, Crystal, Closed cell (Static) method | 0.008104 kPa
363.6 K, Crystal, Transpiration method | 0.00827 kPa
364.5 K, Crystal, Transpiration method | 0.00908 kPa
365.71 K, Crystal, Closed cell (Static) method | 0.01039 kPa
366.4 K, Crystal, Transpiration method | 0.0107 kPa
366.6 K, Crystal, Transpiration method | 0.01098 kPa
368.19 K, Crystal, Closed cell (Static) method | 0.01325 kPa
368.6 K, Crystal, Transpiration method | 0.01323 kPa
369.6 K, Crystal, Transpiration method | 0.01454 kPa
378.32 K, Liquid, Closed cell (Static) method | 0.0318 kPa
378.33 K, Liquid, Closed cell (Static) method | 0.0318 kPa
380.81 K, Liquid, Closed cell (Static) method | 0.0371 kPa
380.82 K, Liquid, Closed cell (Static) method | 0.0371 kPa
383.29 K, Liquid, Closed cell (Static) method | 0.0435 kPa
383.32 K, Liquid, Closed cell (Static) method | 0.0435 kPa
385.78 K, Liquid, Closed cell (Static) method | 0.0507 kPa and 0.0504 kPa
388.26 K, Liquid, Closed cell (Static) method | 0.0588 kPa
388.29 K, Liquid, Closed cell (Static) method | 0.0585 kPa
390.97 K, Liquid, Closed cell (Static) method | 0.0691 kPa
390.98 K, Liquid, Closed cell (Static) method | 0.0695 kPa
393.47 K, Liquid, Closed cell (Static) method | 0.0797 kPa and 0.0801 kPa
395.94 K, Liquid, Closed cell (Static) method | 0.0929 kPa
395.95 K, Liquid, Closed cell (Static) method | 0.0933 kPa
398.44 K, Liquid, Closed cell (Static) method | 0.1072 kPa and 0.1071 kPa
400.91 K, Liquid, Closed cell (Static) method | 0.1239 kPa
400.94 K, Liquid, Closed cell (Static) method | 0.1244 kPa
403.41 K, Liquid, Closed cell (Static) method | 0.1413 kPa
403.44 K, Liquid, Closed cell (Static) method | 0.1428 kPa
405.88 K, Liquid, Closed cell (Static) method | 0.1621 kPa
405.89 K, Liquid, Closed cell (Static) method | 0.1621 kPa
408.38 K, Liquid, Closed cell (Static) method | 0.1849 kPa
408.39 K, Liquid, Closed cell (Static) method | 0.1865 kPa
410.85 K, Liquid, Closed cell (Static) method | 0.2113 kPa
410.87 K, Liquid, Closed cell (Static) method | 0.2131 kPa
413.34 K, Liquid, Closed cell (Static) method | 0.2389 kPa
413.38 K, Liquid, Closed cell (Static) method | 0.242 kPa

Settings | Normal melting temperature [°C]
[1], Crystal | 101.6

COc1cccc(C(=O)O)c1 [3-methoxybenzoic acid]
Settings | Molar enthalpy of transition or fusion [kJ/mol]
[2] | 21.9

Settings | Normal melting temperature [°C]
[1], Crystal | 109.0
